Drawing on US8906952B2, “Indole derivative or pharmaceutically acceptable salt thereof, preparation method thereof, and pharmaceutical composition for preventing or treating metabolic diseases containing same as active ingredient” (Korea Research Institute of Bioscience and Biotechnology, priority 2011, dated 2014), this text covers IC50, activity and inhibition for 16 compounds.

The target in assay [1] is T1, hDGAT-1 (HuTu 80) (Homo sapiens, UniProt O75907).
T1 construct: microsomal protein isolated from human duodenal adenocarcinoma (‘Hutu 80’); endogenous in cells; host or cells: HuTu 80 human duodenal adenocarcinoma cells (microsomes)
T1 sequence (O75907 1-488): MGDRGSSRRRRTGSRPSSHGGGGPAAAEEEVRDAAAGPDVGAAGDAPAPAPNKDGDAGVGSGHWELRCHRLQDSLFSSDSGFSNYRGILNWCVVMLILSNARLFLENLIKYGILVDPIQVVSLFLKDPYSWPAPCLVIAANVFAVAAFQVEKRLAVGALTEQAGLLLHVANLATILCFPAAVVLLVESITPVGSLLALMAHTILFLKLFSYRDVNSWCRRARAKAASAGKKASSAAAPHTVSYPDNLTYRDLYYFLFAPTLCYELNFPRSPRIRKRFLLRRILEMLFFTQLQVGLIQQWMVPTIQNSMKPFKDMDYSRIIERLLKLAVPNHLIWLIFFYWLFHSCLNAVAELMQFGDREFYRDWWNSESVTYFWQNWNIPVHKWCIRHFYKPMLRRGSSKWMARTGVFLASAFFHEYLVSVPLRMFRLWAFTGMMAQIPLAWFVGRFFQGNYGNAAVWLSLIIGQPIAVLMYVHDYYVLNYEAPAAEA
As to the kind of experiment: DGAT enzyme inhibition test, microsomal protein from human duodenal adenocarcinoma (Hutu 80). Type of assay: biochemical. As to conditions: microsomal protein from HuTu 80. The source says:
To investigate inhibitory effect of the compounds of Examples 1-33 against DGAT enzyme activity, DGAT enzyme inhibition and DGAT2 selectivity were investigated using zymogen including:
2) DGAT enzyme derived from human duodenal adenocarcinoma (‘Hutu 80’), and
To be specific, for the purpose of measuring human-derived DGAT enzyme inhibitory activity, using the zymogen, including enzymes derived from insect cell overexpressing human DGAT1 and DGAT2 (‘sf9’), microsomal protein isolated from human duodenal adenocarcinoma (‘Hutu 80’), and microsomal protein isolated from rat, and according to Coleman et al., (Methods Enzymol., 98-103, 1992), and substrate including 1,2-diacylglycerol(Sigma, D0138) and [^14C]palmitoyl-CoA (Amersham, CFA583), the amount of radiation of [^14C]triacylglycerol produced after enzymatic reaction was measured.
To be more specific, to the reaction solution containing 175 mM Tris-HCl (pH 8.0), 20 μl bovine serum albumin (10 mg/ml), 100 mM magnesium chloride, 30 μM [^14C]palmitoyl CoA (0.02 μCi, Amersham) and 200 μM 1,2-dioleoylglycerol, reagent dissolved in dimethylsulfoxide (10.0 μl) was added. After introducing 100 to 200 μg isolated microsomal protein and allowing the same to react at 25° C. for 10 min, the reaction was stopped by adding 1.5 ml stop solution (2-propanol:heptane:water=80:20:2, v:v:v). To isolate the product of the reaction (i.e., [^14C]triacylglycerol), 1 ml heptane and 0.5 ml distilled water were added and then decocted. After taking 1 ml supernatant, 2 ml alkaline ethanol solution (ethanol:0.5 N sodium hydroxide:water=50:10:40, v:v:v) were added and then decocted. After taking 0.65 ml supernatant from the decoction, the amount of radiation was measured with liquid scintillation counter (LSC). The DGAT inhibitory activity was calculated with Mathematical Expression 1 below:
T denotes cpm of experimental group in which the enzymatic reaction solution was treated with the sample,
C denotes cpm of control group in which the enzymatic reaction solution was not treated with the sample, and
B denotes cpm of control group treated with the sample without zymogen.

Assay [2] concerns HepG2 cells. Nature of the assay: DGAT inhibitory effect in HepG2 cells (triglyceride production from [14C]glycerol). As to conditions: Homo sapiens; for activity at 10 µM: HepG2, 6 h, DMSO control = 100, read-out: Triglyceride production rate (%)/HepG2 cells at 10 μM; for inhibition at 10 µM: HepG2, 10 μM, read-out: biosynthesis inhibition rate of triglyceride. The assay is classed as cell-based. As to the method:
To investigate inhibition effect on intracellular DGAT enzyme activity of the compounds obtained in Examples 1-51, intracellular DGAT enzyme activity was measured using human-derived liver HepG2 cells.
HepG2 cells were purchased from ATCC, and cultured in 37° C., 5% CO2 incubator including minimum essential medium (2 mM L-glutamine, earle's BSS adjusted to contain 1.5 g/L sodium bicarbonate, 0.1 mM nonessential amino acids, and 1 mM sodium pyruvate) added with 10% fetal bovine serum (FBS) and 1% antibiotic (100 U/ml penicillin and 100 µg/ml streptomycin).
The intracellular DGAT enzyme activity was measured based on an amount of triglycerides produced in the cultured HepG2 cells, by adding 10 μM enzyme inhibitor compounds obtained in Examples 1-51, respectively, and then determining the effect of the enzyme inhibitors according to reduction rate of the triglyceride production.
Specifically, cells were seeded 1×10^6 cell/ml per well of the 24 well culture plate, and 24 hours after incubation, medium was exchanged with FBS-free DMEM medium, and sample of 0.2 mCi [^14C]glycerol (Amersham) was added as substrate, and the reaction was allowed to occur for 6 hr. The induced production of triglyceride was catalyzed by the DGAT enzyme, and DGAT enzyme activity was determined based on the amount of production of triglyceride which was measured based on the amount of radiation. The sample was dissolved in dimethylsulfoxide (DMSO) to be used, and the control group in the triglyceride production reaction was reacted with dimethylsulfoxide only (i.e., without sample), and the amount of the triglyceride production rate was set to 100.
After the reaction completed, the substrate [^14C]glycerol which was either not absorbed into cells or not used for the reaction, were removed with phosphate-buffer-saline (PBS), and 0.5 ml extraction solvent (hexane:isopropanol=3:2, v:v) was added to extract full fat containing triglycerides. With 0.5 ml extraction solvent, extract was obtained two times for 30 min each, and 1 ml of the extract was concentrated with nitrogen gas. After removing the extraction solvent, the total fat was dissolved in organic solvent (chloroform:methanol=2:1) and spotted with thin-layer chromatography (TLC:silica gel 60F254, thickness: 0.5 mm, Merck) on the developing solvent (hexane:diethyl ether:acetic acid=80:20:1, v: v: v). Triglycerides (Rf value: 0.4) were isolated on TLC, and after exposing the TLC plate to the film with photosensitivity to radiation energy (imaging plate' Fujifilm, BMS-MS 2040) for 3 hr, the amount of [^14C] radiation of triglyceride was measured by imaging analysis (FLA 7000). The remaining cells after the extraction were dissolved in 0.3 ml 0.1 N sodium hydroxide for use in the measurement of protein concentration of the cells used for the reaction.
The experimental errors among the respective experimental groups were compensated with the experimental value which was obtained by dividing the measured radiation of triglyceride by protein concentration, and the production rate of triglyceride according to the respective compounds of Examples 1-51 are tabulated below.

SMILES strings stand for the structures.

In assay [1], `CC(C)N(NC(=O)c1ccccc1)C(=O)/C=C/c1cn(C(=O)OC(C)(C)C)c2ccccc12` [Example 1, (E)-tert-butyl 3-(3-(2-benzoyl-1-isopropylhydrazinyl)-3-oxoprop-1-enyl)-1H-indole-1-carboxylate] showed a concentration for half-maximal inhibition (IC50) of 1.4 µM. In assay [2], the activity at 10 µM came out at 60.1% and the inhibition at 10 µM is 30 to 40%.

In assay [1], `CC(C)N(NC(=O)c1ccccn1)C(=O)/C=C/c1cn(C(=O)OC(C)(C)C)c2ccccc12` [Example 2, (E)-tert-butyl 3-(3-(1-isopropyl-2-picolinoylhydrazinyl)-3-oxoprop-1-enyl)-1H-indole-1-carboxylate] yielded an IC50 of 11.2 µM. In addition, in assay [2], the activity at 10 µM was 64.2% and the inhibition at 10 µM was 30 to 40%.

In turn, `CC(C)N(NC(=O)c1cccnc1)C(=O)/C=C/c1cn(C(=O)OC(C)(C)C)c2ccccc12` [Example 3, (E)-tert-butyl 3-(3-(1-isopropyl-2-nicotinoylhydrazinyl)-3-oxoprop-1-enyl)-1H-indole-1-carboxylate] gave an IC50 in assay [1] of 6.5 µM. In assay [2], the activity at 10 µM was found to be 66.8% and the inhibition at 10 µM lay in the range of 30 to 40%.

The compound `CC(C)N(NC(=O)c1cccc(O)c1)C(=O)/C=C/c1cn(C(=O)OC(C)(C)C)c2ccccc12` [Example 4, (E)-tert-butyl 3-(3-(2-(3-hydroxybenzoyl)-1-isopropylhydrazinyl)-3-oxoprop-1-enyl)-1H-indole-1-carboxylate] registered a 50% inhibitory concentration (IC50) in assay [1] of 12.4 µM. Moreover, the activity at 10 µM in assay [2] was 86.7%.

Compound `CC(C)N(NC(=O)c1ccc(O)cc1)C(=O)/C=C/c1cn(C(=O)OC(C)(C)C)c2ccccc12` [Example 5, (E)-tert-butyl 3-(3-(2-(4-hydroxybenzoyl)-1-isopropylhydrazinyl)-3-oxoprop-1-enyl)-1H-indole-1-carboxylate] showed an IC50 in assay [1] of 6.6 µM. Moreover, in assay [2], the activity at 10 µM is 62.2% and the inhibition at 10 µM is 30 to 40%.

Regarding `COc1cccc(C(=O)NN(C(=O)/C=C/c2cn(C(=O)OC(C)(C)C)c3ccccc23)C(C)C)c1` [Example 6, (E)-tert-butyl 3-(3-(1-isopropyl-2-(3-methoxybenzoyl)hydrazinyl)-3-oxoprop-1-enyl)-1H-indole-1-carboxylate], the IC50 in assay [1] was 5.2 µM. Further, in assay [2], the activity at 10 µM amounted to 74.8% and the inhibition at 10 µM lay in the range of 20 to 30%.

As for `COc1ccc(C(=O)NN(C(=O)/C=C/c2cn(C(=O)OC(C)(C)C)c3ccccc23)C(C)C)cc1` [Example 7, (E)-tert-butyl 3-(3-(1-isopropyl-2-(4-methoxybenzoyl)hydrazinyl)-3-oxoprop-1-enyl)-1H-indole-1-carboxylate], the IC50 in assay [1] amounted to 11.6 µM. In addition, the activity at 10 µM in assay [2] is 85.8%.

On to `CC(C)N(NC(=O)c1cccc(OCCN2CCOCC2)c1)C(=O)/C=C/c1cn(C(=O)OC(C)(C)C)c2ccccc12` [Example 8, (E)-tert-butyl 3-(3-(1-isopropyl-2-(3-(2-morpholinoethoxy)benzoyl)hydrazinyl)-3-oxoprop-1-enyl)-1H-indole-1-carboxylate], for which, in assay [1], the IC50 amounted to 9.3 µM. Also, the activity at 10 µM in assay [2] was found to be 85.2%.

Compound `CC(C)N(NC(=O)c1ccc(OCCN2CCOCC2)cc1)C(=O)/C=C/c1cn(C(=O)OC(C)(C)C)c2ccccc12` [Example 9, (E)-tert-butyl 3-(3-(1-isopropyl-2-(4-(2-morpholinoethoxy)benzoyl)hydrazinyl)-3-oxoprop-1-enyl)-1H-indole-1-carboxylate] yielded an IC50 in assay [1] of 19.6 µM. Also, in assay [2], the activity at 10 µM was 83.8%.

In assay [1], `COCCOc1cccc(C(=O)NN(C(=O)/C=C/c2cn(C(=O)OC(C)(C)C)c3ccccc23)C(C)C)c1` [Example 10, (E)-tert-butyl 3-(3-(1-isopropyl-2-(3-(2-methoxyethoxy)benzoyl)hydrazinyl)-3-oxoprop-1-enyl)-1H-indole-1-carboxylate] came in with an IC50 of 7.7 µM. Also, in assay [2], the activity at 10 µM was determined as 62% and the inhibition at 10 µM is 30 to 40%.

Regarding `CC(C)N(NC(=O)c1cccc(Br)c1)C(=O)/C=C/c1cn(C(=O)OC(C)(C)C)c2ccccc12` [Example 12, (E)-tert-butyl 3-(3-(2-(3-bromobenzoyl)-1-isopropylhydrazinyl)-3-oxoprop-1-enyl)-1H-indole-1-carboxylate], the 50% inhibitory concentration (IC50) in assay [1] is 2.6 µM. Besides, the activity at 10 µM in assay [2] turned out to be 93.5%.

`CC(C)N(NC(=O)c1ccc(F)cc1)C(=O)/C=C/c1cn(C(=O)OC(C)(C)C)c2ccccc12` [Example 44, (E)-tert-butyl 3-(3-(2-(4-fluorobenzoyl)-1-isopropylhydrazinyl)-3-oxoprop-1-enyl)-1H-indole-1-carboxylate]: the activity at 10 µM in assay [2] worked out at 94.8%.

Consider `CC(C)CCn1cc(/C=C/C(=O)N(NC(=O)c2ccc(F)cc2)C(C)C)c2ccccc21` [Example 46, (E)-4-fluoro-N′-(3-(1-isopentyl-1H-indol-3-yl)acryloyl)-N′-isopropylbenzohydrazide], for which, in assay [2], the activity at 10 µM came to 63.5% and the inhibition at 10 µM lay in the range of 30 to 40%.

`Cc1cccc(C(=O)NN(C(=O)/C=C/c2cn(C(=O)OC(C)(C)C)c3ccccc23)C(C)C)c1` [Example 47, (E)-tert-butyl 3-(3-(1-isopropyl-2-(3-methylbenzoyl)hydrazinyl)-3-oxoprop-1-enyl)-1H-indole-1-carboxylate]: in assay [2], the activity at 10 µM was 74.7% and the inhibition at 10 µM is 20 to 30%.

Turning to `Cc1ccc(C(=O)NN(C(=O)/C=C/c2cn(C(=O)OC(C)(C)C)c3ccccc23)C(C)C)cc1` [Example 48, (E)-tert-butyl 3-(3-(1-isopropyl-2-(4-methylbenzoyl)hydrazinyl)-3-oxoprop-1-enyl)-1H-indole-1-carboxylate], the activity at 10 µM in assay [2] is 96.7%.

Turning to `CC(C)=CCn1cc(/C=C/C(=O)N(NC(=O)c2ccc(F)cc2)C(C)C)c2ccccc21` [Example 49, (E)-4-fluoro-N′-isopropyl-N′-(3-(1-(3-methylbut-2-enyl)-1H-indol-3-yl)acryloyl)benzohydrazide], the activity at 10 µM in assay [2] amounted to 55.7%.
